SMILES strings stand for the structures.

The text below walks through data of patent publication US8735398B2 (Bristol-Myers Squibb Company, priority 2009, dated 2014).

The first test relates to HCV 1b genotype. The test is described as follows: HCV replicon assay (HCV-neo replicon cells, wild-type). It is filed as cell-based, Hepatitis C virus. As to conditions: Hepatitis C virus, HCV 1b genotype replicon; class symbol; read-out: EC50 Range against HCV 1b. The procedure, abridged: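 Inhibition was tested in replicon-bearing cells, both wild-type HCV-neo and lines with NS5A resistance substitutions, using the O'Boyle et al. 2005 replicon method or luciferase-reporter formats.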
For `CC(O)(C(=O)N1CCC[C@H]1C(=O)Nc1ccc(-c2ncc(-c3ccc(NC(=O)[C@@H]4CCCN4C(=O)[C@@](C)(O)c4ccccc4)cc3)o2)cc1)c1ccccc1` (stereo partly drawn) [JG-22, (2S)-1-((2S)-2-hydroxy-2-phenylpropanoyl)-N-(4-(2-(4-((((2S)-1-(2-hydroxy-2-phenylpropanoyl)-2-pyrrolidinyl)carbonyl)amino)phenyl)-1,3-oxazol-5-yl)phenyl)-2-pyrrolidinecarboxamide], the EC50 is less than 4.57 nM.

Turning to `O=C(Nc1ccc(-c2cnc(-c3ccc(NC(=O)[C@@H]4CCCN4C(=O)[C@H](O)c4ccccc4)cc3)o2)cc1)[C@@H]1CCCN1C(=O)[C@H](O)c1ccccc1` [JG-23, (2S,2′S)-N,N′-(1,3-oxazole-2,5-diyldi-4,1-phenylene)bis(1-((2R)-2-hydroxy-2-phenylacetyl)-2-pyrrolidinecarboxamide)], the EC50 was less than 4.57 nM.

As for `CO[C@@H](C(=O)N1CCC[C@H]1C(=O)Nc1ccc(-c2cnc(-c3ccc(NC(=O)[C@@H]4CCCN4C(=O)[C@H](OC)c4ccccc4)cc3)o2)cc1)c1ccccc1` [JG-25, (2S,2′S)-N,N′-(1,3-oxazole-2,5-diyldi-4,1-phenylene)bis(1-((2R)-2-methoxy-2-phenylacetyl)-2-pyrrolidinecarboxamide)], the EC50 fell in the range of 4.57 to 99 nM.

As for `O=C(Nc1ccc(-c2cnc(-c3ccc(NC(=O)[C@@H]4CCCN4C(=O)[C@H](O)c4ccccc4Cl)cc3)o2)cc1)[C@@H]1CCCN1C(=O)[C@H](O)c1ccccc1Cl` [JG-26, (2S,2′S)-N,N′-(1,3-oxazole-2,5-diyldi-4,1-phenylene)bis(1-((2R)-2-(2-chlorophenyl)-2-hydroxyacetyl)-2-pyrrolidinecarboxamide)], the EC50 was less than 4.57 nM.

Turning to `O=C(C(=O)N1CCC[C@H]1C(=O)Nc1ccc(-c2cnc(-c3ccc(NC(=O)[C@@H]4CCCN4C(=O)C(=O)c4ccccc4)cc3)o2)cc1)c1ccccc1` [JG-27, (2S,2′S)-N,N′-(1,3-oxazole-2,5-diyldi-4,1-phenylene)bis(1-(oxo(phenyl)acetyl)-2-pyrrolidinecarboxamide)], the EC50 is 4.57 to 99 nM.

With `O=C(Nc1ccc(-c2cnc(-c3ccc(NC(=O)[C@@H]4CCCN4C(=O)c4cc5ccccc5o4)cc3)o2)cc1)[C@@H]1CCCN1C(=O)c1cc2ccccc2o1` [JG-28, (2S,2′S)-N,N′-(1,3-oxazole-2,5-diyldi-4,1-phenylene)bis(1-(1-benzofuran-2-ylcarbonyl)-2-pyrrolidinecarboxamide)], the half-maximal effective concentration (EC50) lay within 100 to 999 nM.

`O=C(Nc1ccc(-c2cnc(-c3ccc(NC(=O)[C@@H]4CCCN4C(=O)c4nc5ccccc5s4)cc3)o2)cc1)[C@@H]1CCCN1C(=O)c1nc2ccccc2s1` [JG-29, (2S,2′S)-N,N′-(1,3-oxazole-2,5-diyldi-4,1-phenylene)bis(1-(1,3-benzothiazol-2-ylcarbonyl)-2-pyrrolidinecarboxamide)]: the EC50 was 100 to 999 nM.

For `O=C(Nc1ccc(-c2cnc(-c3ccc(NC(=O)[C@@H]4CCCN4C(=O)c4onc5ccccc45)cc3)o2)cc1)[C@@H]1CCCN1C(=O)c1onc2ccccc12` [JG-30, (2S,2′S)-N,N′-(1,3-oxazole-2,5-diyldi-4,1-phenylene)bis(1-(2,1-benzisoxazol-3-ylcarbonyl)-2-pyrrolidinecarboxamide)], the EC50 was in the range of 4.57 to 99 nM.

As to `O=C(C(=O)N1CCC[C@H]1C(=O)Nc1ccc(-c2cc(-c3ccc(NC(=O)[C@@H]4CCCN4C(=O)C(=O)c4ccccc4)cc3)[nH]n2)cc1)c1ccccc1` [JG-31, (2S,2′S)-N,N′-(1H-pyrazole-3,5-diyldi-4,1-phenylene)bis(1-(oxo(phenyl)acetyl)-2-pyrrolidinecarboxamide)], the EC50 lay in the range of 4.57 to 99 nM.

On to `O=C(Nc1ccc(-c2cc(-c3ccc(NC(=O)[C@@H]4CCCN4C(=O)[C@H](O)c4ccccc4)cc3)[nH]n2)cc1)[C@@H]1CCCN1C(=O)[C@H](O)c1ccccc1` [JG-32, (2S,2′S)-N,N′-(1H-pyrazole-3,5-diyldi-4,1-phenylene)bis(1-((2R)-2-hydroxy-2-phenylacetyl)-2-pyrrolidinecarboxamide)], for which the EC50 is less than 4.57 nM.

For `O=C(Nc1ccc(-c2cc(-c3ccc(NC(=O)[C@@H]4CCCN4C(=O)[C@@H](O)c4ccccc4)cc3)[nH]n2)cc1)[C@@H]1CCCN1C(=O)[C@@H](O)c1ccccc1` [JG-33, (2S,2′S)-N,N′-(1H-pyrazole-3,5-diyldi-4,1-phenylene)bis(1-((2S)-2-hydroxy-2-phenylacetyl)-2-pyrrolidinecarboxamide)], the EC50 lay in the range of 4.57 to 99 nM.

`O=C(Nc1ccc(-c2cc(-c3ccc(NC(=O)[C@@H]4CCCN4C(=O)[C@H](O)c4ccccc4Cl)cc3)[nH]n2)cc1)[C@@H]1CCCN1C(=O)[C@H](O)c1ccccc1Cl` [JG-36, (2S,2′S)-N,N′-(1H-pyrazole-3,5-diyldi-4,1-phenylene)bis(1-((2R)-2-(2-chlorophenyl)-2-hydroxyacetyl)-2-pyrrolidinecarboxamide)]: the EC50 was less than 4.57 nM.

With `CO[C@@H](C(=O)N1CCC[C@H]1C(=O)Nc1ccc(-c2cc(-c3ccc(NC(=O)[C@@H]4CCCN4C(=O)[C@H](OC)c4ccccc4)cc3)[nH]n2)cc1)c1ccccc1` [JG-37, (2S,2′S)-N,N′-(1H-pyrazole-3,5-diyldi-4,1-phenylene)bis(1-((2R)-2-methoxy-2-phenylacetyl)-2-pyrrolidinecarboxamide)], the EC50 was less than 4.57 nM.

On to `CO[C@H](C(=O)N1CCC[C@H]1C(=O)Nc1ccc(-c2cc(-c3ccc(NC(=O)[C@@H]4CCCN4C(=O)[C@@H](OC)c4ccccc4)cc3)[nH]n2)cc1)c1ccccc1` [JG-38, (2S,2′S)-N,N′-(1H-pyrazole-3,5-diyldi-4,1-phenylene)bis(1-((2S)-2-methoxy-2-phenylacetyl)-2-pyrrolidinecarboxamide)], for which the EC50 was less than 4.57 nM.

Turning to `C[C@@](O)(C(=O)N1CCC[C@H]1C(=O)Nc1ccc(-c2cc(-c3ccc(NC(=O)[C@@H]4CCCN4C(=O)[C@@](C)(O)c4ccccc4)cc3)[nH]n2)cc1)c1ccccc1` [JG-39, (2S,2′S)-N,N′-(1H-pyrazole-3,5-diyldi-4,1-phenylene)bis(1-((2S)-2-hydroxy-2-phenylpropanoyl)-2-pyrrolidinecarboxamide)], the EC50 is less than 4.57 nM.

In the case of `O=C(Nc1ccc(-c2cc(-c3ccc(NC(=O)[C@@H]4CCCN4C(=O)c4cc5ccccc5o4)cc3)[nH]n2)cc1)[C@@H]1CCCN1C(=O)c1cc2ccccc2o1` [JG-40, (2S,2′S)-N,N′-(1H-pyrazole-3,5-diyldi-4,1-phenylene)bis(1-(1-benzofuran-2-ylcarbonyl)-2-pyrrolidinecarboxamide)], the EC50 fell in the range of 100 to 999 nM.

Take `O=C(Nc1ccc(-c2cc(-c3ccc(NC(=O)[C@@H]4CCCN4C(=O)c4nc5ccccc5s4)cc3)[nH]n2)cc1)[C@@H]1CCCN1C(=O)c1nc2ccccc2s1` [JG-41, (2S,2′S)-N,N′-(1H-pyrazole-3,5-diyldi-4,1-phenylene)bis(1-(1,3-benzothiazol-2-ylcarbonyl)-2-pyrrolidinecarboxamide)]: the EC50 was in the range of 100 to 999 nM.

`O=C(C(=O)N1CCC[C@H]1C(=O)Nc1ccc(-c2nc[nH]c2-c2ccc(NC(=O)[C@@H]3CCCN3C(=O)C(=O)c3ccccc3)cc2)cc1)c1ccccc1` [JG-42, (2S,2′S)-N,N′-(1H-imidazole-4,5-diyldi-4,1-phenylene)bis(1-(oxo(phenyl)acetyl)-2-pyrrolidinecarboxamide)]: the EC50 was less than 4.57 nM.

Consider `O=C(Nc1ccc(-c2nc[nH]c2-c2ccc(NC(=O)[C@@H]3CCCN3C(=O)[C@H](O)c3ccccc3)cc2)cc1)[C@@H]1CCCN1C(=O)[C@H](O)c1ccccc1` [JG-43, (2S,2′S)-N,N′-(1H-imidazole-4,5-diyldi-4,1-phenylene)bis(1-((2R)-2-hydroxy-2-phenylacetyl)-2-pyrrolidinecarboxamide)], for which the EC50 is less than 4.57 nM.

For the molecule `O=C(Nc1ccc(-c2nc[nH]c2-c2ccc(NC(=O)[C@@H]3CCCN3C(=O)[C@@H](O)c3ccccc3)cc2)cc1)[C@@H]1CCCN1C(=O)[C@@H](O)c1ccccc1` [JG-44, (2S,2′S)-N,N′-(1H-imidazole-4,5-diyldi-4,1-phenylene)bis(1-((2S)-2-hydroxy-2-phenylacetyl)-2-pyrrolidinecarboxamide)], the EC50 was 100 to 999 nM.

Regarding `CO[C@H](C(=O)N1CCC[C@H]1C(=O)Nc1ccc(-c2nc[nH]c2-c2ccc(NC(=O)[C@@H]3CCCN3C(=O)[C@@H](OC)c3ccccc3)cc2)cc1)c1ccccc1` [JG-45, (2S,2′S)-N,N′-(1H-imidazole-4,5-diyldi-4,1-phenylene)bis(1-((2S)-2-methoxy-2-phenylacetyl)-2-pyrrolidinecarboxamide)], the concentration giving a half-maximal response (EC50) was 4.57 to 99 nM.

On to `C[C@@](O)(C(=O)N1CCC[C@H]1C(=O)Nc1ccc(-c2nc[nH]c2-c2ccc(NC(=O)[C@@H]3CCCN3C(=O)[C@@](C)(O)c3ccccc3)cc2)cc1)c1ccccc1` [JG-46, (2S,2′S)-N,N′-(1H-imidazole-4,5-diyldi-4,1-phenylene)bis(1-((2S)-2-hydroxy-2-phenylpropanoyl)-2-pyrrolidinecarboxamide)], for which the EC50 is less than 4.57 nM.

In the case of `C[C@](O)(C(=O)N1CCC[C@H]1C(=O)Nc1ccc(-c2nc[nH]c2-c2ccc(NC(=O)[C@@H]3CCCN3C(=O)[C@](C)(O)c3ccccc3)cc2)cc1)c1ccccc1` [JG-47, (2S,2′S)-N,N′-(1H-imidazole-4,5-diyldi-4,1-phenylene)bis(1-((2R)-2-hydroxy-2-phenylpropanoyl)-2-pyrrolidinecarboxamide)], the EC50 lay within 4.57 to 99 nM.

As for `O=C(Nc1ccc(-c2nc[nH]c2-c2ccc(NC(=O)[C@@H]3CCCN3C(=O)c3nccc4ccccc34)cc2)cc1)[C@@H]1CCCN1C(=O)c1nccc2ccccc12` [JG-48, (2S,2′S)-N,N′-(1H-imidazole-4,5-diyldi-4,1-phenylene)bis(1-(1-isoquinolinylcarbonyl)-2-pyrrolidinecarboxamide)], the half-maximal effective concentration (EC50) was in the range of 1000 to 10000 nM.

With `O=C(Nc1ccc(-c2nc[nH]c2-c2ccc(NC(=O)[C@@H]3CCCN3C(=O)c3nc(Cl)cc4ccccc34)cc2)cc1)[C@@H]1CCCN1C(=O)c1nc(Cl)cc2ccccc12` [JG-49, (2S,2′S)-N,N′-(1H-imidazole-4,5-diyldi-4,1-phenylene)bis(1-((3-chloro-1-isoquinolinyl)carbonyl)-2-pyrrolidinecarboxamide)], the EC50 fell in the range of 1000 to 10000 nM.

Staying with this test, now noted: Hepatitis C virus, HCV 1b genotype replicon; read-out: EC50 1b.
Turning to `CC(O)(C(=O)N1CCC[C@H]1C(=O)Nc1ccc(-c2ncc(-c3ccc(NC(=O)[C@@H]4CCCN4C(=O)[C@@](C)(O)c4ccccc4)cc3)o2)cc1)c1ccccc1` (stereo partly drawn) [JG-22, (2S)-1-((2S)-2-hydroxy-2-phenylpropanoyl)-N-(4-(2-(4-((((2S)-1-(2-hydroxy-2-phenylpropanoyl)-2-pyrrolidinyl)carbonyl)amino)phenyl)-1,3-oxazol-5-yl)phenyl)-2-pyrrolidinecarboxamide], the EC50 is less than 5 nM.

`C[C@@](O)(C(=O)N1CCC[C@H]1C(=O)Nc1ccc(-c2cc(-c3ccc(NC(=O)[C@@H]4CCCN4C(=O)[C@@](C)(O)c4ccccc4)cc3)[nH]n2)cc1)c1ccccc1` [JG-39, (2S,2′S)-N,N′-(1H-pyrazole-3,5-diyldi-4,1-phenylene)bis(1-((2S)-2-hydroxy-2-phenylpropanoyl)-2-pyrrolidinecarboxamide)]: the EC50 was less than 5 nM.

In the case of `O=C(Nc1ccc(-c2nc[nH]c2-c2ccc(NC(=O)[C@@H]3CCCN3C(=O)c3nccc4ccccc34)cc2)cc1)[C@@H]1CCCN1C(=O)c1nccc2ccccc12` [JG-48, (2S,2′S)-N,N′-(1H-imidazole-4,5-diyldi-4,1-phenylene)bis(1-(1-isoquinolinylcarbonyl)-2-pyrrolidinecarboxamide)], the EC50 was found to be 2340 nM.
